Experimental data taken from ChEMBL document CHEMBL1145177, “Further naphthylcombretastatins. An investigation on the role of the naphthalene moiety” (J Med Chem, 2005).

Key:
SK-MEL-28 = experiment: Inhibitory concentration value against human MEL-28 tumor cell line; assay type: functional, cell-based
HCT-116 = experiment: Inhibitory concentration value against human colon carcinoma H-116 tumor cell line; assay type: functional, cell-based
P388 = experiment: Inhibitory concentration value against murine P-388 tumor cell line; assay type: functional, cell-based; conditions: Mus musculus
A549 = experiment: Inhibitory concentration value against human A-549 tumor cell line; assay type: functional, cell-based
Tubulin beta chain = Tubulin beta chain (Bos taurus, UniProt Q6B856); experiment: In vitro inhibitory concentration value against bovine brain tubulin polymerization
Tubulin beta chain, sequence (Q6B856 whole entry): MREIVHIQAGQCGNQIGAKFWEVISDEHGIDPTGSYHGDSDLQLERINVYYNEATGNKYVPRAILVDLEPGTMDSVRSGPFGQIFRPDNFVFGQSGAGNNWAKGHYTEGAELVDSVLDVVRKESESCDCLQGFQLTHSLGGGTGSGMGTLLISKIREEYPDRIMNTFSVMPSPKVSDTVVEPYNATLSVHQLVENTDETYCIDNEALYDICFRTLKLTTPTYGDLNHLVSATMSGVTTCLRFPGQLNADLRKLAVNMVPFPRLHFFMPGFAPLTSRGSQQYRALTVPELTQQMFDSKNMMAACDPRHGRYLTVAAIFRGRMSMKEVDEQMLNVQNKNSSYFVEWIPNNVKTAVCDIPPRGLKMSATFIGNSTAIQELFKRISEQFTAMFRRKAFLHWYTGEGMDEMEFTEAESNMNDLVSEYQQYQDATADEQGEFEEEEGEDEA

HT-29 = experiment: Inhibitory concentration value against human colon adenocarcinoma HT-29 tumor cell line; assay type: functional, cell-based
HL-60 = experiment: Inhibitory concentration value against human colon carcinoma H-116 or human cancer HL-60 tumor cell line; assay type: functional, cell-based
[1] = Inhibitory concentration value against human MEL-28 or human cancer HeLa tumor cell line; assay type: functional, cell-based

Row | SMILES | IC50 (SK-MEL-28) [nM] | IC50 (HCT-116) [nM] | IC50 (P388) [nM] | IC50 (A549) [nM] | IC50 (Tubulin beta chain) [nM] | IC50 (HT-29) [nM] | IC50 (HL-60) [nM] | IC50 [1] [nM]
1 | COc1cc(/C=C\c2ccc3c(ccn3C)c2)cc(OC)c1OC |  |  |  |  | 2000 |  | 330 | 250
2 | COc1cc(/C=C/c2ccc3ccccc3c2)cc(N)c1OC |  |  |  | 2150 | > 40000 | 6000 | 3150 | 460
3 | COc1cc(/C=C/c2ccc3[nH]ccc3c2)cc(OC)c1OC |  |  |  | 470 | > 30000 | 280 | 380 | 250
4 | COc1cc(/C=C\c2ccc3ccccc3c2)cc([N+](=O)[O-])c1OC |  |  |  | 590 | 13000 | 420 | 340 | 110
5 | COc1cc(/C=C\c2ccc(N(C)C)c(N)c2)cc(OC)c1OC |  |  |  | 4 | > 30000 | 4 | 3 | 3
6 | COc1cc(/C=C/c2ccc3ccccc3c2)cc([N+](=O)[O-])c1OC |  |  |  | > 10000 | > 40000 | > 10000 | > 10000 | 3200
7 | COc1cc(/C=C\c2ccc3[nH]ccc3c2)cc(OC)c1OC |  |  |  | 390 | 25000 | 35 | 35 | 34
8 | COc1cc(/C=C/c2ccc3c(ccn3C)c2)cc(OC)c1OC |  |  |  |  | 30000 |  | 27 | 24
9 | COc1cc(/C=C/c2ccc3ccccc3c2)cc(OC)c1OC | 390 | 390 | 390 | 390 |  | 390 | 390 | 390
10 | COc1ccc(/C=C\c2ccc3ccccc3c2)cc1O | 3 | 16 | 3 | 3 | 3000 | 32 | 16 | 3
11 | COc1cc(/C=C\c2ccc3ccccc3c2)cc(OC)c1OC [NAPHTHYLCOMBRETASTATIN] | 20 | 20 | 20 |  | 10000 |  | > 5000 | 20

Further lines, results first:

Row | IC50 (SK-MEL-28) [nM] | IC50 (HCT-116) [nM] | IC50 (P388) [nM] | IC50 (A549) [nM] | IC50 (Tubulin beta chain) [nM] | IC50 (HT-29) [nM] | IC50 (HL-60) [nM] | IC50 [1] [nM] | SMILES
12 | 40 | 40 | 40 | 40 | 16000 | 3620 | 3620 | 40 | COc1ccc(/C=C\c2cc(OC)c3ccccc3c2)cc1O
13 | 1920 | 1920 | 1920 | 1920 | > 30000 | 1920 |  |  | COc1cccc(/C=C\c2ccc3ccccc3c2)c1
14 | 3620 | 3620 | 3620 | 3620 |  | 3620 | 3620 | 3620 | COc1ccc(/C=C/c2cc(OC)c3ccccc3c2)cc1O
15 | 450 | 450 | 450 | 450 | > 30000 | 450 |  |  | COc1cc(/C=C\c2ccc3ccccc3c2)ccc1F
16 |  |  | > 5000 | > 5000 |  | > 5000 | > 5000 | > 5000 | CN(C)c1c([N+](=O)[O-])cc(/C=C/c2ccc3ccccc3c2)cc1[N+](=O)[O-]
17 |  |  |  | > 10000 | 6000 | > 10000 | > 10000 | 3100 | COc1cc(/C=C\c2ccc3c(c2)c2ccccc2n3C)cc(OC)c1OC
18 |  |  |  | 530 | > 30000 | 450 | 340 | 330 | COc1cc(/C=C/c2ccc3c(c2)c2ccccc2n3C)cc(OC)c1OC
19 | 3590 | 3590 | 3590 | 3590 |  | 3590 | 3590 | 3590 | COc1cc2ccc(CCc3ccc4ccccc4c3)cc2cc1O
20 | 310 | 310 | 310 | 310 |  | 310 | 310 | 310 | COc1cc(CCc2ccc3ccccc3c2)cc(OC)c1OC
